Literature values as cited in patent publication US20070092440A1, “Bone localising radiopharmaceutical and tubulin-interacting compound combinatorial” (priority 2003, published 2007).

Legend:
[1] = test system: bone pain, osteoblastic metastatic bone lesions; conditions: for treated patients with symptomatic relief of bone pain: in vivo
[2] = in vivo
[3] = test system: HRPC patients with bone metastases
[4] = repeated dosing with 1.0 mCi/kg
[5] = test system: leukocyte and platelet counts; conditions: 1.0 mCi/kg
[6] = supplied frozen
[7] = in bone

[89Sr+2].[Cl-].[Cl-] [strontium 89 chloride]
treated patients with symptomatic relief of bone pain [1]: approximately 80%

CC(=O)O[C@@]12CO[C@@H]1C[C@H](O)[C@@]1(C)C(=O)[C@H](O)C3=C(C)[C@@H](OC(=O)[C@H](O)[C@@H](NC(=O)OC(C)(C)C)c4ccccc4)C[C@@](O)([C@@H](OC(=O)c4ccccc4)[C@H]21)C3(C)C [docetaxel]
myelosuppression [2]: Myelosuppression has been observed

COc1cccc2c1C(=O)c1c(O)c3c(c(O)c1C2=O)C[C@@](O)(C(=O)CO)C[C@@H]3O[C@H]1C[C@H](N)[C@H](O)[C@H](C)O1 [doxorubicin]
overall survival ([3]; 72 HRPC patients with bone metastases, randomized): 16.8 months
incidence of Grade 3/4 neutropenia ([3]; in vivo): 22%

O=P([O-])(O)CN(CCN(CP(=O)([O-])O)CP(=O)(O)O)CP(=O)([O-])O.[153Sm+3] [samarium Sm 153 lexidronam]
myelosuppression [2]: Myelosuppression has been observed
cumulative toxicity on repeated dosing [4]: not associated with cumulative toxicity
median time of nadir of leukocyte and platelet counts [5]: 4 weeks
patients with Grade 3/4 haematologic toxicity [5]: < 10%
time by which recovery of counts is generally complete [5]: 5-8 weeks
drug product expiry after the time of calibration [6]: 48 h
patients with pain relief at Week 4 who still had pain relief at Week 16 ([1]; 1.0 mCi/kg dose group): two-thirds
treated patients with symptomatic relief of bone pain [1]: approximately 80%
time in which the majority of excretion occurs (after administration): ≤ 8 h
time to complete excretion (after administration): ≤ 12 h
clearance route (in vivo): exclusively renal
uptake by nonosseous tissue (in vivo): no significant uptake
range of emission [7]: 1.7 mm
